This note sets out measurements from patent US8247424B2, “Fredericamycin derivatives” (Zentopharm GmbH, priority 2002, dated 2012).

Converted amounts (≈) assume the structure as drawn.

Usually IC70 stands for the concentration needed for an effect of 70%. Low values mean an effect from little substance, high ones a need for much substance.

The experiment can be described thus: Biological activity against 12 cancer cell lines, efficacy (IC70) averaged over all cell lines.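 Note: panel also covers renal lines RXF 944L and RXF 486L, uterine UXF 1138L, and prostate lines PRXF PC3M and PRXF 22RV1.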 To be noted: averaged over all 12 cancer cell lines, 5 test concentrations. Format: cell-based.
Protocol: LCL (H460, lung), MACL (MCF7, breast), LXFL (52L, lung), LXFA (629L, lung), MEXF (462NL, melanoma), MEXF (514L, melanoma), MAXF (401NL, breast), RXF (944L, renal), RXF (486L, renal), UXF (1138L, uterus), PRXF (PC3M, prostate), PRXF (22RV1).
Regarding `C/C=C/C=C/c1cc2c(F)c3c(c(O)c2c(=O)[nH]1)[C@@]1(CC3)C(=O)c2c(O)c3c(c(O)c2C1=O)C(=O)C(OC)=CC3=O` [Example 23, (8S)-5-fluoro-4′,9,9′-trihydroxy-6′-methoxy-3-[(1E,3E)-penta-1,3-dienyl]-6,7-dihydrospiro[cyclopenta[g]isoquinoline-8,2′-cyclopenta[b]-naphthalene]-1,1′,3′,5′,8′(2H)-pentone], the 70% effect concentration (IC70) turned out to be 0.011 µg/mL (≈ 0.0197 µM). To `COC1=CC(=O)c2c(O)c3c(c(O)c2C1=O)C(=O)C1(CCc2cc4cc(C=NOCc5ccccc5)[nH]c(=O)c4c(O)c21)C3=O` (stereo not drawn) [Example 121, 4′,9,9′-Trihydroxy-6′-methoxy-1,1′,3′,5′,8′-pentaoxo-1,1′,2,3′,5′,6,7,8′-octahydrospiro[cyclopenta[g]isoquinoline-8,2′-cyclopenta[b]-naphthalene]-3-carbaldehyde O-benzyloxime] belongs 0.202 µg/mL (≈ 0.333 µM); to `COC1=CC(=O)c2c(O)c3c(c(O)c2C1=O)C(=O)C1(CCc2cc4cc(C=NOCc5cccc(Cl)c5)[nH]c(=O)c4c(O)c21)C3=O` (stereo not drawn) [Example 127, 4′,9,9′-Trihydroxy-6′-methoxy-1,1′,3′,5′,8′-pentaoxo-1,1′,2,3′,5′,6,7,8′-octahydrospiro[cyclopenta[g]isoquinoline-8,2′-cyclopenta[b]-naphthalene]-3-carbaldehyde O-(3-chlorobenzyl)oxime], 0.155 µg/mL (≈ 0.242 µM).

`COC1=CC(=O)c2c(O)c3c(c(O)c2C1=O)C(=O)[C@]1(CCc2c1c(O)c1c(=O)[nH]c(C=NOCCN4CCOCC4)cc1c2Br)C3=O` [Example 192, (8S)-5-bromo-4′,9,9′-trihydroxy-6′-methoxy-1,1′,3′,5′,8′-pentaoxo-1,1′,2,3′,5′,6,7,8′-octahydrospiro[cyclopenta[g]isoquinoline-8,2′-cyclopenta[b]-naphthalene]-3-carbaldehyde O-[2-morpholine-4-yl-ethyl)oxime]: the IC70 stood at 0.075 µg/mL (≈ 0.106 µM). Regarding `CON=Cc1cc2c(Br)c3c(c(O)c2c(=O)[nH]1)[C@@]1(CC3)C(=O)c2c(O)c3c(c(O)c2C1=O)C(=O)C(OC)=CC3=O` [Example 196, (8S)-5-bromo-4′,9,9′-trihydroxy-6′-methoxy-1,1′,3′,5′,8′-pentaoxo-1,1′,2,3′,5′,6,7,8′-octahydrospiro[cyclopenta[g]isoquinoline-8,2′-cyclopenta[b]-naphthalene]-3-carbaldehyde O-methyloxime], the IC70 amounted to 0.095 µg/mL (≈ 0.156 µM).

In the case of `COC1=CC(=O)c2c(O)c3c(c(O)c2C1=O)C(=O)[C@]1(CCc2c1c(O)c1c(=O)[nH]c(C=NOCc4ccccc4)cc1c2Br)C3=O` [Example 197, (8S)-5-bromo-4′,9,9′-trihydroxy-6′-methoxy-1,1′,3′,5′,8′-pentaoxo-1,1′,2,3′,5′,6,7,8′-octahydrospiro[cyclopenta[g]isoquinoline-8,2′-cyclopenta[b]-naphthalene]-3-carbaldehyde-O-benzyloxime], the IC70 came out at 0.034 µg/mL (≈ 0.0496 µM). In the case of `COC1=CC(=O)c2c(O)c3c(c(O)c2C1=O)C(=O)[C@]1(CCc2c1c(O)c1c(=O)[nH]c(C=NO)cc1c2Br)C3=O` [Example 198, (8S)-5-bromo-4′,9,9′-trihydroxy-6′-methoxy-1,1′,3′,5′,8′-pentaoxo-1,1′,2,3′,5′,6,7,8′-octahydrospiro[cyclopenta[g]isoquinoline-8,2′-cyclopenta[b]-naphthalene]-3-carbaldehyde oxime], the IC70 is 0.256 µg/mL (≈ 0.43 µM). In turn, `COC1=CC(=O)c2c(O)c3c(c(O)c2C1=O)C(=O)[C@]1(CCc2c1c(O)c1c(=O)[nH]c(C=NOCc4cccc(Cl)c4)cc1c2Br)C3=O` [Example 203, (8S)-5-bromo-4′,9,9′-trihydroxy-6′-methoxy-1,1′,3′,5′,8′-pentaoxo-1,1′,2,3′,5′,6,7,8′-octahydrospiro[cyclopenta[g]isoquinoline-8,2′-cyclopenta[b]-naphthalene]-3-carbaldehyde O-(3-chlorobenzyl)oxime] yielded an IC70 of 0.159 µg/mL (≈ 0.221 µM).

On to `COC1=CC(=O)c2c(O)c3c(c(O)c2C1=O)C(=O)[C@]1(CCc2c1c(O)c1c(=O)[nH]c(C=NOCCCN4CCN(c5cccc(Cl)c5)CC4)cc1c2Br)C3=O` [Example 212, (8S)-5-bromo-4′,9,9′-trihydroxy-6′-methoxy-1,1′,3′,5′,8′-pentaoxo-1,1′,2,3′,5′,6,7,8′-octahydrospiro[cyclopenta[g]isoquinoline-8,2′-cyclopenta[b]-naphthalene]-3-carbaldehyde O-[3-(4-(3-chlorophenyl)-piperazine-1-yl)propyl]oxime], for which the IC70 is 0.21 µg/mL (≈ 0.252 µM). On to `COC1=CC(=O)c2c(O)c3c(c(O)c2C1=O)C(=O)[C@]1(CCc2cc4cc(C=NOC(C)C)[nH]c(=O)c4c(O)c21)C3=O` [Example 214, (8S)-4′,9,9′-trihydroxy-6′-methoxy-1,1′,3′,5′,8′-pentaoxo-1,1′,2,3′,5′,6,7,8′-octahydrospiro[cyclopenta[g]isoquinoline-8,2′-cyclopenta[b]-naphthalene]-3-carbaldehyde O-isopropyloxime], for which the 70% effect level (IC70) was put at 0.022 µg/mL (≈ 0.0394 µM). The figure for `CCCCCCON=Cc1cc2cc3c(c(O)c2c(=O)[nH]1)[C@@]1(CC3)C(=O)c2c(O)c3c(c(O)c2C1=O)C(=O)C(OC)=CC3=O` [Example 215, (8S)-4′,9,9′-trihydroxy-6′-methoxy-1,1′,3′,5′,8′-pentaoxo-1,1′,2,3′,5′,6,7,8′-octahydrospiro[cyclopenta[g]isoquinoline-8,2′-cyclopenta[b]-naphthalene]-3-carbaldehyde O-n-hexyloxime] is 0.072 µg/mL (≈ 0.12 µM). Consider `COC1=CC(=O)c2c(O)c3c(c(O)c2C1=O)C(=O)[C@]1(CCc2cc4cc(C=NOCc5ccc(Cl)cc5)[nH]c(=O)c4c(O)c21)C3=O` [Example 217, (8S)-4′,9,9′-trihydroxy-6′-methoxy-1,1′,3′,5′,8′-pentaoxo-1,1′,2,3′,5′,6,7,8′-octahydrospiro[cyclopenta[g]isoquinoline-8,2′-cyclopenta[b]-naphthalene]-3-carbaldehyde O-(4-chlorobenzyl)oxime], for which it took 0.129 µg/mL (≈ 0.201 µM) to reach the 70% level (IC70). `COC1=CC(=O)c2c(O)c3c(c(O)c2C1=O)C(=O)[C@]1(CCc2cc4cc(C=NOCc5cccc(F)c5)[nH]c(=O)c4c(O)c21)C3=O` [Example 218, (8S)-4′,9,9′-trihydroxy-6′-methoxy-1,1′,3′,5′,8′-pentaoxo-1,1′,2,3′,5′,6,7,8′-octahydrospiro[cyclopenta[g]isoquinoline-8,2′-cyclopenta[b]-naphthalene]-3-carbaldehyde O-(3-fluorobenzyl)oxime] registered an IC70 of 0.076 µg/mL (≈ 0.122 µM). For the molecule `COC1=CC(=O)c2c(O)c3c(c(O)c2C1=O)C(=O)[C@]1(CCc2c1c(O)c1c(=O)[nH]c(C=NOC(C)C)cc1c2Br)C3=O` [Example 224, (8S)-5-bromo-4′,9,9′-trihydroxy-6′-methoxy-1,1′,3′,5′,8′-pentaoxo-1,1′,2,3′,5′,6,7,8′-octahydrospiro[cyclopenta[g]isoquinoline-8,2′-cyclopenta[b]-naphthalene]-3-carbaldehyde O-isopropyloxime], the 70% effect level (IC70) was put at 0.047 µg/mL (≈ 0.0737 µM).

`CCCCCCON=Cc1cc2c(Br)c3c(c(O)c2c(=O)[nH]1)[C@@]1(CC3)C(=O)c2c(O)c3c(c(O)c2C1=O)C(=O)C(OC)=CC3=O` [Example 225, (8S)-5-bromo-4′,9,9′-trihydroxy-6′-methoxy-1,1′,3′,5′,8′-pentaoxo-1,1′,2,3′,5′,6,7,8′-octahydrospiro[cyclopenta[g]isoquinoline-8,2′-cyclopenta[b]-naphthalene]-3-carbaldehyde O-n-hexyloxime]: it took 0.111 µg/mL (≈ 0.163 µM) to reach the 70% level (IC70). `CCCCCCON=Cc1cc2c(I)c3c(c(O)c2c(=O)[nH]1)[C@@]1(CC3)C(=O)c2c(O)c3c(c(O)c2C1=O)C(=O)C(OC)=CC3=O` [Example 230, (8S)-5-iodo-4′,9,9′-trihydroxy-6′-methoxy-1,1′,3′,5′,8′-pentaoxo-1,1′,2,3′,5′,6,7,8′-octahydrospiro[cyclopenta[g]isoquinoline-8,2′-cyclopenta[b]-naphthalene]-3-carbaldehyde O-n-hexyloxime] showed an IC70 of 0.091 µg/mL (≈ 0.125 µM). Molecule `COC1=CC(=O)c2c(O)c3c(c(O)c2C1=O)C(=O)[C@]1(CCc2c1c(O)c1c(=O)[nH]c(C=NOCc4ccc(Cl)cc4)cc1c2I)C3=O` [Example 232, (8S)-5-iodo-4′,9,9′-trihydroxy-6′-methoxy-1,1′,3′,5′,8′-pentaoxo-1,1′,2,3′,5′,6,7,8′-octahydrospiro[cyclopenta[g]isoquinoline-8,2′-cyclopenta[b]-naphthalene]-3-carbaldehyde O-(4-chlorobenzyl)oxime] registered an IC70 of 0.317 µg/mL (≈ 0.413 µM). `COC1=CC(=O)c2c(O)c3c(c(O)c2C1=O)C(=O)[C@]1(CCc2c1c(O)c1c(=O)[nH]c(C=NOCc4cccc(F)c4)cc1c2I)C3=O` [Example 233, (8S)-5-iodo-4′,9,9′-trihydroxy-6′-methoxy-1,1′,3′,5′,8′-pentaoxo-1,1′,2,3′,5′,6,7,8′-octahydrospiro[cyclopenta[g]isoquinoline-8,2′-cyclopenta[b]-naphthalene]-3-carbaldehyde O-(3-fluorobenzyl)oxime] had an IC70 of 0.1 µg/mL (≈ 0.133 µM). `COC1=CC(=O)c2c(O)c3c(c(O)c2C1=O)C(=O)[C@]1(CCc2c1c(O)c1c(=O)[nH]c(C=NOCc4ccccc4)cc1c2I)C3=O` [Example 234, (8S)-5-iodo-4′,9,9′-trihydroxy-6′-methoxy-1,1′,3′,5′,8′-pentaoxo-1,1′,2,3′,5′,6,7,8′-octahydrospiro[cyclopenta[g]isoquinoline-8,2′-cyclopenta[b]-naphthalene]-3-carbaldehyde O-benzyloxime] had an IC70 of 0.052 µg/mL (≈ 0.071 µM). `COC1=CC(=O)c2c(O)c3c(c(O)c2C1=O)C(=O)[C@]1(CCc2c1c(O)c1c(=O)[nH]c(C=NOCCN4CCOCC4)cc1c2I)C3=O` [Example 235, (8S)-5-iodo-4′,9,9′-trihydroxy-6′-methoxy-1,1′,3′,5′,8′-pentaoxo-1,1′,2,3′,5′,6,7,8′-octahydrospiro[cyclopenta[g]isoquinoline-8,2′-cyclopenta[b]-naphthalene]-3-carbaldehyde O-[2-morpholine-4-yl-ethyl)oxime] showed an IC70 of 0.081 µg/mL (≈ 0.107 µM).

`CON=Cc1cc2c(I)c3c(c(O)c2c(=O)[nH]1)[C@@]1(CC3)C(=O)c2c(O)c3c(c(O)c2C1=O)C(=O)C(OC)=CC3=O` [Example 236, (8S)-5-iodo-4′,9,9′-trihydroxy-6′-methoxy-1,1′,3′,5′,8′-pentaoxo-1,1′,2,3′,5′,6,7,8′-octahydrospiro[cyclopenta[g]isoquinoline-8,2′-cyclopenta[b]-naphthalene]-3-carbaldehyde O-methyloxime] gave a concentration for an effect of 70% (IC70) of 0.121 µg/mL (≈ 0.184 µM).
